US20030236407A1, “Perfluoroalkyl group-containing micelle-forming triiodoaromatic compounds, process for their production and their use as contrast media” (Schering AG, priority 2002, published 2003)

Test: Critical micelle formation concentration (CMC) by concentration-dependent determination of the surface tension
Format: physicochemical
Conditions: aqueous solution; from concentration-dependent surface tension
Procedure: The CMC was determined by the concentration-dependent determination of the surface tension. The method is described by, i.a., Elworthy and Mysels; J. Colloid Interface Sci., 21, 331, 1966; Mukerjee, Mysels; The Critical Micelle Conc. Of Aqu. Surfactant Systems, 1971, US National Bureau of Standards and G. Brosowski, M. Rohr, G. Lehmann; Fette, […], Anstrichsmittel [Fats, Soaps, Paints], 75, 335, 1973.

Structure (SMILES)	Critical Micelle Formation Concentration (CMC)
CN(CC(O)C(O)C(O)C(O)CO)C(=O)c1c(I)c(NC(=O)COCC(=O)N2CCN(S(=O)(=O)C(F)(F)C(F)(F)C(F)(F)C(F)(F)C(F)(F)C(F)(F)C(F)(F)C(F)(F)F)CC2)c(I)c(C(=O)N(C)CC(O)C(O)C(O)C(O)CO)c1I (stereo not drawn) [Example 5 f, 2,4,6-Triiodo-N,N′-dimethyl-5-{2-[2-oxo-2-(4-(heptadecafluorooctane-1-sulfonyl)-piperazin-1-yl]-ethoxy]-acetylamino}-N,N′-bis-(2,3,4,5,6-pentahydroxyhexyl)-isophthalamide]	0.00012 mol/L
CN(CC(O)C(O)C(O)C(O)CO)C(=O)c1c(I)c(C(=O)N(C)CC(O)C(O)C(O)C(O)CO)c(I)c(N(CC(=O)O)C(=O)COCC(=O)N2CCN(S(=O)(=O)C(F)(F)C(F)(F)C(F)(F)C(F)(F)C(F)(F)C(F)(F)C(F)(F)C(F)(F)F)CC2)c1I (stereo not drawn) [Example 6 e]	6.9e-05 mol/L
O=C(O)CN(C(=O)CCC(=O)N1CCN(S(=O)(=O)C(F)(F)C(F)(F)C(F)(F)C(F)(F)C(F)(F)C(F)(F)C(F)(F)C(F)(F)F)CC1)c1c(I)c(C(=O)N(CC(O)CO)CC(O)CO)c(I)c(C(=O)N(CC(O)CO)CC(O)CO)c1I (stereo not drawn) [Example 3 e, [{3,5-Bis-[bis-(2,3-dihydroxy-propyl)-carbamoyl]-2,4,6-triiodo-phenyl}-{4[4-(heptadecafluorooctane-1-sulfonyl)-piperazin-1-yl]-4-oxo-butyryl}-amino)-acetic Acid]	5.4e-05 mol/L
O=C(O)CN(C(=O)COCC(=O)N1CCN(S(=O)(=O)C(F)(F)C(F)(F)C(F)(F)C(F)(F)C(F)(F)C(F)(F)C(F)(F)C(F)(F)F)CC1)c1c(I)c(C(=O)N(CC(O)CO)CC(O)CO)c(I)c(C(=O)N(CC(O)CO)CC(O)CO)c1I (stereo not drawn) [Example 1 e, [{3,5-Bis-[bis-(2,3-dihydroxy-propyl)-carbamoyl]-2,4,6-triiodo-phenyl}-(2-{2-[4-(heptadecafluorooctane-1-sulfonyl)piperazin-1-yl]-2-oxo-ethoxy}-acetyl)-amino]-acetic Acid]	6.4e-05 mol/L
O=C(CCC(=O)N1CCN(S(=O)(=O)C(F)(F)C(F)(F)C(F)(F)C(F)(F)C(F)(F)C(F)(F)C(F)(F)C(F)(F)F)CC1)Nc1c(I)c(C(=O)N(CC(O)CO)CC(O)CO)c(I)c(C(=O)N(CC(O)CO)CC(O)CO)c1I (stereo not drawn) [Example 4 c, N,N,N′,N′-Tetrakis-(2,3-dihydroxy-propyl)-5-{4-[4-(heptadecafluorooctane-1-sulfonyl)-piperazin-1-yl]-4-oxo-butyrylamino}-2,4,6-triiodo-isophthalamide]	5.4e-05 mol/L
O=C(COCC(=O)N1CCN(S(=O)(=O)C(F)(F)C(F)(F)C(F)(F)C(F)(F)C(F)(F)C(F)(F)C(F)(F)C(F)(F)F)CC1)Nc1c(I)c(C(=O)N(CC(O)CO)CC(O)CO)c(I)c(C(=O)N(CC(O)CO)CC(O)CO)c1I (stereo not drawn) [Example 2 c]	6.2e-05 mol/L
